Measurements reported in ChEMBL document CHEMBL2069241, “Isosteric replacements for benzothiazoles and optimisation to potent Cathepsin K inhibitors free from hERG channel inhibition” (Bioorg Med Chem Lett, 2012).
In brackets after ≈: the same amount, converted by molar mass.

What was measured:
[1] = physchem; conditions: buffer, pH 7.4
[2] = physchem; conditions: buffer, pH 7.4; remark: listed apart in the source
[3] = Volume of distribution at steady state in Han Wistar rat at 1 mg/kg, iv and 2 mg/kg, po; assay type: ADME, organism-based; conditions: in vivo, read-out: Vdss
[4] = Oral bioavailability in Han Wistar rat at 2 mg/kg; assay type: ADME, organism-based; conditions: in vivo
[5] = Volume of distribution at steady state in beagle dog at 1 mg/kg, iv and 1 mg/kg, po; assay type: ADME, organism-based, Canis lupus familiaris; conditions: in vivo, read-out: Vdss
[6] = Oral bioavailability in beagle dog at 1 mg/kg; assay type: ADME, organism-based, Canis lupus familiaris; conditions: in vivo

Compound | logD [1] | solubility [2] | Vd [3] | bioavailability [4] | Vd [5] | bioavailability [6]
CC(C)(C)c1csc(N2CCN(C(=O)[C@@H]3CCCC[C@H]3C(=O)NC3(C#N)CC3)CC2)n1 | 3.3 | 280 µM (≈ 124 µg/mL) |  |  |  | 
N#CC1(NC(=O)[C@@H]2CCCC[C@H]2C(=O)N2CCN(c3nc(C(F)(F)F)cs3)CC2)CC1 | 2.4 |  |  |  |  | 
Cc1sc(N2CCN(C(=O)[C@@H]3CCCC[C@H]3C(=O)NC3(C#N)CC3)CC2)nc1C(F)(F)F | 2.9 |  |  |  |  | 
N#CC1(NC(=O)[C@@H]2CCCC[C@H]2C(=O)N2CCN(c3nc(C(F)(F)F)c(Cl)s3)CC2)CC1 | 3.4 |  |  |  |  | 
N#Cc1cnc(N2CCN(C(=O)[C@@H]3CCCC[C@H]3C(=O)NC3(C#N)CC3)CC2)s1 | 1.2 |  |  |  |  | 
CC(C)(C#N)c1cnc(N2CCN(C(=O)[C@@H]3CCCC[C@H]3C(=O)NC3(C#N)CC3)CC2)s1 | 1.9 | 2600 µM (≈ 1180 µg/mL) |  |  |  | 
N#CC1(NC(=O)[C@@H]2CCCC[C@H]2C(=O)N2CCN(c3nc4c(s3)CCC4)CC2)CC1 | > 3 |  |  |  |  | 
N#CC1(NC(=O)[C@@H]2CCCC[C@H]2C(=O)N2CCN(c3nc4c(s3)COCC4)CC2)CC1 | 1.4 | > 3600 µM | 1.3 L/kg | 33% |  | 
CC1(C)COCc2sc(N3CCN(C(=O)[C@@H]4CCCC[C@H]4C(=O)NC4(C#N)CC4)CC3)nc21 | 2.4 | 1700 µM (≈ 802 µg/mL) |  |  |  | 

The remaining lines, values ahead:

logD [1] | solubility [2] | Vd [3] | bioavailability [4] | Vd [5] | bioavailability [6] | Compound
3.5 | 96 µM (≈ 44.5 µg/mL) |  |  |  |  | N#CC1(NC(=O)[C@@H]2CCCC[C@H]2C(=O)N2CCN(c3nc(-c4ccccc4)cs3)CC2)CC1
2.6 | 1000 µM (≈ 438 µg/mL) | 1.5 L/kg | 20% | 1.5 L/kg | 78% | N#CC1(NC(=O)[C@@H]2CCCC[C@H]2C(=O)N2CCN(c3nc4ccccc4s3)CC2)CC1
1.3 | 3100 µM (≈ 1200 µg/mL) |  |  |  |  | N#CC1(NC(=O)[C@@H]2CCCC[C@H]2C(=O)N2CCN(c3nccs3)CC2)CC1
1.5 |  | 0.54 L/kg | 3.3% |  |  | CS(=O)(=O)c1ccc2nc(N3CCN(C(=O)[C@@H]4CCCC[C@H]4C(=O)NC4(C#N)CC4)CC3)sc2c1
1.6 | > 1600 µM |  |  |  |  | N#CC1(NC(=O)[C@@H]2CCCC[C@H]2C(=O)N2CCN(c3nc4ccncc4s3)CC2)CC1
1.7 | > 1500 µM | 0.8 L/kg | 17% |  |  | N#CC1(NC(=O)[C@@H]2CCCC[C@H]2C(=O)N2CCN(c3nc4cnccc4s3)CC2)CC1
1.4 | > 2000 µM |  |  |  |  | N#CC1(NC(=O)[C@@H]2CCCC[C@H]2C(=O)N2CCN(c3nc4ncccc4s3)CC2)CC1
